Assay results published in patent US20070128217A1 (priority 2003, published 2007).

Columns and labels:
[1] = tested on: rabbit serum obtained by immunizing a rabbit with the SARS-CoV strain Frankfurt 1; assay type: binding; parameters: Binding of a rabbit serum to linear peptides / Binding of a rabbit serum to looped peptides / Rabbit serum linear peptides / Rabbit serum looped peptides / Binding of a rabbit serum to linear peptides of protein N of SARS-CoV Urbani (Rabbit serum linear peptides) / Binding of a rabbit serum to looped/cyclic peptides of protein N of SARS-CoV Urbani (Rabbit serum looped peptides): unit not given here
[2] = tested on: control sera (pooled serum of ten healthy LUMC hospital workers; commercial negative donor pooled serum from the Dutch bloodbank); assay type: binding, human; parameters: Binding of Control serum LUMC to linear peptides / Binding of Control serum Blood-bank to linear peptides / Binding of Control serum LUMC to looped peptides / Binding of Control Serum Blood-Bank to Looped peptides / Binding of Control serum LUMC to linear peptides of the protein M of SARS-CoV Urbani / Binding of Control serum Blood-bank to linear peptides of the protein M of SARS-CoV Urbani / Binding of Control serum LUMC to looped peptides of the protein M of SARS-CoV Urbani / Binding of Control Serum Blood-Bank to Looped peptides of the protein M of SARS-CoV Urbani: unit not given here

MADNGTITVEELKQL
Recognition of the peptide by the rabbit serum [1]: recognized
Binding of Control Serum Blood-Bank to Looped peptides of the protein M of SARS-CoV Urbani [2]: 0.4
Binding of Control serum Blood-bank to linear peptides of the protein M of SARS-CoV Urbani [2]: 0.5
Binding of Control serum LUMC to linear peptides of the protein M of SARS-CoV Urbani [2]: 0.6
Binding of Control serum LUMC to looped peptides of the protein M of SARS-CoV Urbani [2]: 0.6

RFFTLGSITAQPVKI
Binding of a rabbit serum to linear peptides [1]: 1.7
Binding of a rabbit serum to looped peptides [1]: 0.5
Binding of Control Serum Blood-Bank to Looped peptides [2]: 0.8
Binding of Control serum Blood-bank to linear peptides [2]: 1.0
Binding of Control serum LUMC to linear peptides [2]: 1.1
Binding of Control serum LUMC to looped peptides [2]: 0.7

VRQLFKPLTKKNYSE
Rabbit serum linear peptides [1]: 0.4
Rabbit serum looped peptides [1]: 2.2
Binding of Control Serum Blood-Bank to Looped peptides of the protein X3 of SARS-CoV Urbani [2]: 0.9
Binding of Control serum Blood-bank to linear peptides of the protein X3 of SARS-CoV Urbani [2]: 0.9
Binding of Control serum LUMC to linear peptides of the protein X3 of SARS-CoV Urbani [2]: 0.7
Binding of Control serum LUMC to looped peptides of the protein X3 of SARS-CoV Urbani [2]: 0.7

GNYKLNTDHAGSNDN
Rabbit serum linear peptides [1]: 0.0
Rabbit serum looped peptides [1]: 0.2
Binding of Control Serum Blood-Bank to Looped peptides of the protein M of SARS-CoV Urbani [2]: 0.6
Binding of Control serum Blood-bank to linear peptides of the protein M of SARS-CoV Urbani [2]: 0.6
Binding of Control serum LUMC to linear peptides of the protein M of SARS-CoV Urbani [2]: 0.7
Binding of Control serum LUMC to looped peptides of the protein M of SARS-CoV Urbani [2]: 0.7

GASQRVGTDSGFAAY
Rabbit serum linear peptides [1]: 0.1
Rabbit serum looped peptides [1]: 0.1
Binding of Control Serum Blood-Bank to Looped peptides of the protein M of SARS-CoV Urbani [2]: 0.7
Binding of Control serum Blood-bank to linear peptides of the protein M of SARS-CoV Urbani [2]: 0.9
Binding of Control serum LUMC to linear peptides of the protein M of SARS-CoV Urbani [2]: 0.9
Binding of Control serum LUMC to looped peptides of the protein M of SARS-CoV Urbani [2]: 0.7

STPKLKEDYQIGGYS
Binding of a rabbit serum to linear peptides [1]: 0.1
Binding of a rabbit serum to looped peptides [1]: 0.3
Binding of Control Serum Blood-Bank to Looped peptides [2]: 0.2
Binding of Control serum Blood-bank to linear peptides [2]: 0.7
Binding of Control serum LUMC to linear peptides [2]: 0.7
Binding of Control serum LUMC to looped peptides [2]: 0.3

AYCCNIVNVSLVKPT
Binding of a rabbit serum to linear peptides [1]: 0.3
Binding of a rabbit serum to looped peptides [1]: 0.2
Binding of Control Serum Blood-Bank to Looped peptides [2]: 0.9
Binding of Control serum Blood-bank to linear peptides [2]: 0.9
Binding of Control serum LUMC to linear peptides [2]: 0.9
Binding of Control serum LUMC to looped peptides [2]: 0.8

GTYEGNSPFHPLADN
Rabbit serum linear peptides [1]: 0.6
Rabbit serum looped peptides [1]: 0.5
Binding of Control Serum Blood-Bank to Looped peptides [2]: 0.9
Binding of Control serum Blood-bank to linear peptides [2]: 0.7
Binding of Control serum LUMC to linear peptides [2]: 0.8
Binding of Control serum LUMC to looped peptides [2]: 0.7

YHYQECVRGTTVLLK
Rabbit serum linear peptides [1]: 1.7
Rabbit serum looped peptides [1]: 0.6
Binding of Control Serum Blood-Bank to Looped peptides [2]: 0.7
Binding of Control serum Blood-bank to linear peptides [2]: 0.8
Binding of Control serum LUMC to linear peptides [2]: 0.7
Binding of Control serum LUMC to looped peptides [2]: 0.8

DNKFALTCTSTHFAF
Rabbit serum linear peptides [1]: 0.7
Rabbit serum looped peptides [1]: 0.6
Binding of Control Serum Blood-Bank to Looped peptides [2]: 0.6
Binding of Control serum Blood-bank to linear peptides [2]: 0.7
Binding of Control serum LUMC to linear peptides [2]: 0.6
Binding of Control serum LUMC to looped peptides [2]: 0.8

TFFIFNKLVKDPPNV
Binding of a rabbit serum to linear peptides [1]: 0.1
Binding of a rabbit serum to looped peptides [1]: 0.5
Binding of Control Serum Blood-Bank to Looped peptides [2]: 0.6
Binding of Control serum Blood-bank to linear peptides [2]: 0.7
Binding of Control serum LUMC to linear peptides [2]: 0.6
Binding of Control serum LUMC to looped peptides [2]: 0.6

GSSGVANPAMDPIYD
Binding of a rabbit serum to linear peptides [1]: 0.1
Binding of a rabbit serum to looped peptides [1]: 0.5
Binding of Control Serum Blood-Bank to Looped peptides [2]: 0.4
Binding of Control serum Blood-bank to linear peptides [2]: 0.6
Binding of Control serum LUMC to linear peptides [2]: 0.7
Binding of Control serum LUMC to looped peptides [2]: 0.4

ASQRVGTDSGFAAYN
Rabbit serum linear peptides [1]: 0.4
Rabbit serum looped peptides [1]: 0.1
Binding of Control Serum Blood-Bank to Looped peptides of the protein M of SARS-CoV Urbani [2]: 0.7
Binding of Control serum Blood-bank to linear peptides of the protein M of SARS-CoV Urbani [2]: 0.8
Binding of Control serum LUMC to linear peptides of the protein M of SARS-CoV Urbani [2]: 0.5
Binding of Control serum LUMC to looped peptides of the protein M of SARS-CoV Urbani [2]: 0.8
